Patent US8404866B2, “Substituted heterocyclic mercaptosulfonamide metalloprotease inhibitors” (Florida State University Research Foundation, priority 2008, dated 2013)
Structures can show the parent of a compound that is named as a salt.

What was measured:
Format in all cases: biochemical
[1] = target: T1, MMP-14 (cdMT-1; human recombinant catalytic domain of membrane-type 1 matrix metalloproteinase) (Homo sapiens, UniProt P50281); assay: Enzyme kinetic assay, inhibition of MMP-14; conditions: read-out: Ki (value in parentheses), cdMT-1 MMP-14
T1 construct: human recombinant catalytic domain of membrane-type 1 matrix metalloproteinase (cdMT1-MMP)
Text: (§1) The following protocol was used to obtain the data found in the following table. Materials: The fluorescent peptide substrates for matrix metalloproteinases (MMPs) used were purchased from Bachem Chem. Co. The metal salts and Brij-35 were purchased from Fisher Scientific Inc. All other chemicals were purchased from Sigma-Aldrich Chem. Co. The sources and biochemical characterizations of multiple MMPs, including MMP-1/human fibroblast collagenase (HFC), MMP-2/human fibroblast gelatinase (HFG), MMP-8/human neutrophil collagenase (HNC), and MMP-9/human neutrophil gelatinase (HNG), MMP-7/human matrilysin (MLN), MMP-3/human fibroblast stromelysin-1 (HFS), human recombinant catalytic domain of membrane-type 1 matrix metalloproteinase (cdMT1-MMP), catalytic domain of MMP-12/metalloelastase (cdMET), and MMP-26/human endometase (EDM) were described previously (Sang, Q. X., Birkedal-Hansen, H., and Van Wart, H. E. Proteolytic and non-proteolytic activation of human neutrophil progelatinase B. Biochim. Biophys. Acta. 1995; 1251, 99-108; Sang, Q. A., Bodden, M. K., and Windsor, L. J. Activation of human progelatinase A by collagenase and matrilysin: activation of procollagenase by matrilysin. J. Protein. Chem. 1996; 15, 243-253; Li, H., Bauzon, D. E., Xu, X., Tschesche, H., Cao, J., and Sang, Q.-X. A. Immunological characterization of cell-surface and soluble forms of membrane type 1 matrix metalloproteinase in human breast cancer cells and in fibroblasts. Molec. Carcinog. 1998; 22, 84-94; Park, H. I., Ni, J., Gerkema, F. E., Liu, D., Belozerov, V. E., and Sang, Q.-X. A. Identification and characterization of human endometase (Matrix metalloproteinase-26) from endometrial tumor. J. Biol. Chem., 2000; 275, 20540-20544). The active concentrations of MMPs were determined by titration with GM6001, a tight-binding MMP inhibitor, as described previously (Park, H. I., Turk, B. E., Gerkema, F. E., Cantley, L. C., and Sang, Q.-X. A. Peptide substrate specificities and protein cleavage sites of human endometase/matrilysin-2/matrix metalloproteinase-26. J. Biol. Chem. 2002; 277, 35168-35175).
(§2) The active inhibitor concentrations were estimated by titrating the mercapto group with 5,5′-dithiobis(2-nitrobenzoic acid) (DTNB; Ellman's reagent) as described previously (Ellman, G. L. A colorimetric method for determining low concentrations of mercaptans. Arch. Biochem. Biophys. 1958; 74, 443-450; Ellman, G. L. Tissue sulfhydryl groups. Arch. Biochem. Biophys. 1959; 82, 70-77; Riddles, P. W., Blakeley, R. L., and Zerner, B. Ellman's reagent: 5,5′-dithiobis(2-nitrobenzoic acid)—a reexamination. Anal. Biochem. 1979; 94, 75-81). Briefly, the reaction of DTNB with the mercapto group produces 2-nitro-5-thiobenzoic acid (TNB). The concentration of TNB is then measured by monitoring the absorbance at 412 nm. Cysteine was used to generate the standard curve with a molar extinction coefficient of 14,000±500 M^−1 cm^−1, which is close to the value in the literature (Riddles, P. W., Blakeley, R. L., and Zerner, B. Ellman's reagent: 5,5′-dithiobis(2-nitrobenzoic acid)—a reexamination. Anal. Biochem. 1979; 94, 75-81).
(§3) The substrate Mca-PLGLDpaAR-NH2 was used to measure inhibition constants (Knight, C. G., Willenbrock. F., and Murphy, G. A novel coumarin-labelled peptide for sensitive continuous assays of the matrix metalloproteinases. FEBS Lett. 1992; 296, 263-266). Enzymatic assays were performed at 25° C. in 50 mM HEPES buffer at pH 7.5 in the presence of 10 mM CaCl2, 0.2 M NaCl, and 0.01% or 0.05% Brij-35 with substrate concentrations of 1 μM. The release of product was monitored by measuring fluorescence (excitation and emission wavelengths of 328 nm and 393 nm, respectively) with a Perkin Elmer Luminescence Spectrophotometer LS 50B connected to a temperature controlled water bath. All stock solutions of inhibitors were in dimethyl sulfoxide. […]

[2] = target: MMP-9 (HNG; human neutrophil gelatinase) (Homo sapiens, UniProt P14780); assay: Enzyme kinetic assay, inhibition of MMP-9; conditions: read-out: Ki (value in parentheses), HNG MMP-9
Text: as §1, §2, §3

[3] = target: T2, MMP-26 (EDM; human endometase) (Homo sapiens, UniProt Q9NRE1); assay: Enzyme kinetic assay, inhibition of MMP-26; conditions: read-out: Ki (value in parentheses), EDM MMP-26
T2 sequence (Q9NRE1 90-261): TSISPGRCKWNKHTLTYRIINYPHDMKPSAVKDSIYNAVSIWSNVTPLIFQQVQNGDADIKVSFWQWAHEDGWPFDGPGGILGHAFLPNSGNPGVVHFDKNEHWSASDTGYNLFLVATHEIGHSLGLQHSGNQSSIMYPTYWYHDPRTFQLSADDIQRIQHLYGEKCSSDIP
Text: as §1, §2, §3

[4] = target: T3, MMP-12 (cdMET; catalytic domain of MMP-12/metalloelastase) (Homo sapiens, UniProt P39900); assay: Enzyme kinetic assay, inhibition of MMP-12; conditions: read-out: Ki (value in parentheses), cdMET MMP-12
T3 construct: catalytic domain of MMP-12/metalloelastase (cdMET)
Text: as §1, §2, §3

MMP-13 (COL-3) = MMP-13 (COL-3) (Homo sapiens, UniProt P45452); assay: Enzyme kinetic assay, inhibition of MMP-13; conditions: read-out: Ki (value in parentheses), COL-3 MMP-13
Text: as §1, §2, §3

[5] = target: T4, MMP-7 (MLN; human matrilysin) (Homo sapiens, UniProt P09237); assay: Enzyme kinetic assay, inhibition of MMP-7; conditions: for Ki: read-out: Ki (value in parentheses), MLN MMP-7; for IC50: 25° C., pH 7.5, substrate 1 μM, read-out: IC50 (value without parentheses), MLN MMP-7
T4 sequence (P09237 95-267): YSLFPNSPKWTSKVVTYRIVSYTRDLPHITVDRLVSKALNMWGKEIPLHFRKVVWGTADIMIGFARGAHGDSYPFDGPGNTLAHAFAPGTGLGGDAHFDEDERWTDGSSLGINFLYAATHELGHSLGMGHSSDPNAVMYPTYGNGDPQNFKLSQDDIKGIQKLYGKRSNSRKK
Text: as §1, §2, §3

Sequence of MMP-9 (HNG; human neutrophil gelatinase) (P14780 94-707): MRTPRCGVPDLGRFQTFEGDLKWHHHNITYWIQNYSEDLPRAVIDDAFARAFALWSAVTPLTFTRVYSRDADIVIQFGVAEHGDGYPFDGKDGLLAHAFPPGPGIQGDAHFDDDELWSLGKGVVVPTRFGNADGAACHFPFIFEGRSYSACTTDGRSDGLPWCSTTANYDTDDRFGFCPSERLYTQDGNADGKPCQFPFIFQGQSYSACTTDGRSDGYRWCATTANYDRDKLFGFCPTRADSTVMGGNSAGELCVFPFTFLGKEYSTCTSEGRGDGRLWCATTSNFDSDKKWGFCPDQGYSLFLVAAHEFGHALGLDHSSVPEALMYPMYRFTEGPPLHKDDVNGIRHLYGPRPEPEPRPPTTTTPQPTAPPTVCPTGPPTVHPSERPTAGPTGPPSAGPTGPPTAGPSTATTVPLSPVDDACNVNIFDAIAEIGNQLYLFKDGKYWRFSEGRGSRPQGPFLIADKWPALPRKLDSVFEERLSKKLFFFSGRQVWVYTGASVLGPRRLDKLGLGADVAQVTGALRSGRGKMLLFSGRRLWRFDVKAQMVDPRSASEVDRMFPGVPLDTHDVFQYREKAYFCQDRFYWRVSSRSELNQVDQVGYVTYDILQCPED
T3 sequence (P39900 106-263 limits assumed, species assumed): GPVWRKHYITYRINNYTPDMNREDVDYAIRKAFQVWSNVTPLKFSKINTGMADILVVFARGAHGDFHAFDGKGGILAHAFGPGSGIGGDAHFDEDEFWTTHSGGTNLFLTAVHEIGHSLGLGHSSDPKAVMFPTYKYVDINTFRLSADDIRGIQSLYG

Ki [1] [nM] | Ki [2] [nM] | Ki [3] [nM] | Ki [4] [nM] | Ki (MMP-13 (COL-3)) [nM] | Ki [5] [nM] | IC50 [5] [nM] | Structure (SMILES)
70 | 400 | 270 | 29 | 47 | 2000 |  | CC(=O)NCCCCCC(=O)N1C[C@H](NS(=O)(=O)c2ccc(-c3ccccc3)cc2)[C@@H](S)C1 (racemic) [Example 9, (±)-N-(6-Acetamidohexanoyl)-trans-3-(4-phenylbenzene-sulfonamido)-4-mercaptopyrrolidine]
4 | 1.5 | 3 | 2 | 1.7 | 3000 |  | CC(=O)NCCCCCC(=O)N1C[C@H](NS(=O)(=O)c2ccc(Oc3ccccc3)cc2)[C@@H](S)C1 (racemic) [Example 8, (±)-N-(6-Acetamidohexanoyl)-trans-3-(4-phenoxy-benzenesulfonamido)-4-mercaptopyrrolidine]
11 | 15 | 32 | 250 | 50 |  | > 25000 | NC(=O)N1C[C@H](NS(=O)(=O)c2ccc(Oc3ccccc3)cc2)[C@@H](S)C1 (racemic) [Example 1, (±)-N-Carbamoyl-trans-3-(4-phenoxybenzenesulfonamido)-4-mercaptopyrrolidine]
5 | 2.3 | 4 | 4.8 | 2 | 4000 |  | NCCCCCC(=O)N1C[C@H](NS(=O)(=O)c2ccc(Oc3ccccc3)cc2)[C@@H](S)C1 (racemic) [Example 7, (±)-N-(6-Aminohexanoyl)-trans-3-(4-phenoxybenzene-sulfonamido)-4-mercaptopyrrolidine Hydrochloride]
110 | 230 | 28 | 38 | 35 |  | > 25000 | O=S(=O)(N[C@H]1CNC[C@@H]1S)c1ccc(Oc2ccccc2)cc1 (racemic) [Example 3, (±)-trans-3-(4-Phenoxybenzenesulfonamido)-4-mercaptopyrrolidine Hydrochloride]
21 | 2.4 | 41 | 2 | 27 |  | > 12500 | O=C(NCCN1C(=O)c2ccccc2C1=O)N1C[C@H](NS(=O)(=O)c2ccc(Oc3ccccc3)cc2)[C@@H](S)C1 (racemic) [Example 2, (±)-N-(2-Phthalimidoethylaminocarbonyl)-trans-3-(4-phenoxybenzenesulfonamido)-4-mercaptopyrrolidine]
62 | 1.3 | 19 | 160 | 28 |  | > 25000 | CN([C@H]1CN(C(N)=O)C[C@@H]1S)S(=O)(=O)c1ccc(Oc2ccccc2)cc1 (racemic) [Example 4, (±)-N-Carbamoyl-trans-3-(N-methyl-4-phenoxybenzenesulfonamido)-4-mercaptopyrrolidine]
3100 | 81 | 650 | 710 | 100 |  | > 12500 | O=C(OCc1ccccc1)N1C[C@H](NS(=O)(=O)c2ccc(-c3ccccc3)cc2)[C@@H](S)C1 (racemic) [Example 6, (±)-N-(Benzyloxycarbonyl)-trans-3-(4-phenylbenzenesulfonamido)-4-mercaptopyrrolidine]
100 | 13 | 72 | 720 | 450 |  | > 50000 | O=C(OCc1ccccc1)N1C[C@H](NS(=O)(=O)c2ccc(Oc3ccccc3)cc2)[C@@H](S)C1 (racemic) [Example 5, (±)-N-(Benzyloxycarbonyl)-trans-3-(4-phenoxybenzenesulfonamido)-4-mercaptopyrrolidine]
